{
  "source": "patent US7410975B2",
  "about": "“Small molecule toll-like receptor (TLR) antagonists” (Coley Pharmaceutical Group, Inc., priority 2003, dated 2008)",
  "data": [
    {"biological_target": "T1, human TLR9 (hTLR9) (Homo sapiens, UniProt Q9NR96)", "T1 construct": "expressed in transfected cells", "T1 sequence (Q9NR96 26-1032)": "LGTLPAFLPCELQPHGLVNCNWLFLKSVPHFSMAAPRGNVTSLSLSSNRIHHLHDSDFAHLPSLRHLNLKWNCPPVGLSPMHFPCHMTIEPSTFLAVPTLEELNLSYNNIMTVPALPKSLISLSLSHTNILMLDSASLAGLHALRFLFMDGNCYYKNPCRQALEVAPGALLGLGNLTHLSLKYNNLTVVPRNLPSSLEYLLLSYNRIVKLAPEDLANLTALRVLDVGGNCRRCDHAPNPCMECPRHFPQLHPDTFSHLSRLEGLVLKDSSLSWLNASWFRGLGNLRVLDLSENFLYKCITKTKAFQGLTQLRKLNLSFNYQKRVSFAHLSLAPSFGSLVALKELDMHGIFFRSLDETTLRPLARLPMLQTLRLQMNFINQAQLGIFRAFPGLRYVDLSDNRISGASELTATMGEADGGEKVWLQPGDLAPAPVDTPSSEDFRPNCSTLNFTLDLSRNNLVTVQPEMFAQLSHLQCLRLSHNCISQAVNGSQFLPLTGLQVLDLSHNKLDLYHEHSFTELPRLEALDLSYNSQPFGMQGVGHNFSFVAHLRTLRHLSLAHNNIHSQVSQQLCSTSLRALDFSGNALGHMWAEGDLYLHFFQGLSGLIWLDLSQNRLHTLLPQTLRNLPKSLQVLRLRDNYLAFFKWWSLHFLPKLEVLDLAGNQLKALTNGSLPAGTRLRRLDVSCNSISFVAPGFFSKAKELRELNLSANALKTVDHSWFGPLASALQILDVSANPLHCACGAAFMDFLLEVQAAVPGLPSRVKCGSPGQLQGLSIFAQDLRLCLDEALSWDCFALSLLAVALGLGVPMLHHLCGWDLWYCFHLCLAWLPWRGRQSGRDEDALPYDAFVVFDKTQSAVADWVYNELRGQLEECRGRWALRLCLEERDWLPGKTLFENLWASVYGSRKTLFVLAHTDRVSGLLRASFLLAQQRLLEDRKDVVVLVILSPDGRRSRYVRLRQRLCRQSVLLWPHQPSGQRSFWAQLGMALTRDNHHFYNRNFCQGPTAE", "assay": "Antagonist screen, hTLR9-NFκB-293 cells, 6× NF-κB-luciferase reporter, with EC50 of CpG ODN 2006", "type": "cell-based", "conditions": "FIG. 1, graph", "summary_of_the_method": "(§1)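 Luciferase fold induction was compared with the ligand-alone baseline, and antagonism was scored by the lowest concentration giving clear down-regulation.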", "values": [
      {"compound": "c1ccc2c(c1)[nH]c1cnccc12", "note": "[compound 470, norharman]", "inhibition of TLR9 signaling in response to CpG ODN 2006 (FIG. 1)": "concentration-dependent inhibition"},
      {"compound": "OCc1cc2c(cn1)[nH]c1ccccc12", "note": "[compound 878, 3-hydroxymethyl-beta-carboline]", "inhibition of TLR9 signaling in response to CpG ODN 2006 (FIG. 1)": "concentration-dependent inhibition"}
    ]},
    {"biological_target": "T1, human TLR9 (hTLR9)", "assay": "Antagonist screen, hTLR9-NFκB-293 cells, 6× NF-κB-luciferase reporter, with EC50 of CpG ODN 2006", "type": "cell-based", "conditions": "compound at 0.5, 5, 50 μg/ml; EC50 concentration of CpG ODN 2006; 16 h; NF-κB-luciferase", "summary_of_the_method": "as §1", "values": [
      {"compound": "c1ccc2c(c1)[nH]c1cnccc12", "note": "[compound 470, norharman]", "hTLR9 (inhibitory effect, antagonist score)": "11 (compounds for which there was clear down regulation only at 50 μg/ml)"},
      {"compound": "CCN(CC)CCCN(CC(=O)C1c2ccc(Cl)cc2NC(=O)c2ccccc21)C(=O)c1ccccc1", "note": "(centres unmarked) [compound 1013]", "hTLR9 (inhibitory effect, antagonist score)": "11 (compounds for which there was clear down regulation only at 50 μg/ml)"},
      {"compound": "Cl.Cl.OCCN1CCN(CC/C=C2/c3ccccc3Sc3ccc(C(F)(F)F)cc32)CC1", "note": "[compound 340, Flupentixoldihydrochloride cis-(Z)]", "hTLR9 (inhibitory effect, antagonist score)": "11 (compounds for which there was clear down regulation only at 50 μg/ml)"},
      {"compound": "CN(CCO)C(=O)c1cccc2c1-c1ccccc1C2=O", "note": "[compound 890]", "hTLR9 (inhibitory effect, antagonist score)": "— (compounds for which there was no clear down regulation even at 50 μg/ml)"},
      {"compound": "Trifluoperazinedihydrochloride [compound 313]", "hTLR9 (inhibitory effect, antagonist score)": "11 (compounds for which there was clear down regulation only at 50 μg/ml)"},
      {"compound": "Clc1ccc(C(c2ccccc2Cl)C(Cl)Cl)cc1", "note": "(centres unmarked) [compound 833, Mitotane]", "hTLR9 (inhibitory effect, antagonist score)": "12 (compounds for which there was clear down regulation at 5 μg/ml and 50 μg/ml)"},
      {"compound": "COC(=O)c1cccc(C(O)(c2ccccc2)c2ccccc2)c1S(=O)(=O)C(C)(C)C", "note": "[compound 1187]", "hTLR9 (inhibitory effect, antagonist score)": "— (compounds for which there was no clear down regulation even at 50 μg/ml)"},
      {"compound": "O=C1c2ccccc2C(=O)c2c1ccc1c(=O)n(C3CCCCC3)[nH]c21", "note": "[compound 1015]", "hTLR9 (inhibitory effect, antagonist score)": "11 (compounds for which there was clear down regulation only at 50 μg/ml)"},
      {"compound": "COC(=O)[C@H]1[C@H]2C[C@@H]3c4[nH]c5cc(OC)ccc5c4CCN3C[C@H]2C[C@@H](OC(=O)/C=C/c2cc(OC)c(OC)c(OC)c2)[C@@H]1OC", "note": "[compound 568, Rescinnamin]", "hTLR9 (inhibitory effect, antagonist score)": "12 (compounds for which there was clear down regulation at 5 μg/ml and 50 μg/ml)"},
      {"compound": "Cc1cccc(CN2CCN(C(c3ccccc3)c3ccc(Cl)cc3)CC2)c1.Cl.Cl", "note": "(centres unmarked) [compound 457, Meclozinedihydrochioride]", "hTLR9 (inhibitory effect, antagonist score)": "11 (compounds for which there was clear down regulation only at 50 μg/ml)"},
      {"compound": "CCOCCOC(=O)c1cc([N+](=O)[O-])cc2c1-c1c(cc([N+](=O)[O-])cc1[N+](=O)[O-])C2=C(C#N)C#N", "note": "[compound 1241]", "hTLR9 (inhibitory effect, antagonist score)": "— (compounds for which there was no clear down regulation even at 50 μg/ml)"},
      {"compound": "O=C1c2ccccc2C(=O)c2c1ccc1c(=O)n(-c3ccccc3)[nH]c21", "note": "[compound 1042]", "hTLR9 (inhibitory effect, antagonist score)": "12 (compounds for which there was clear down regulation at 5 μg/ml and 50 μg/ml)"},
      {"compound": "Nc1cccc2c1C(=O)c1cccc(N)c1C2=O", "note": "[compound 413, Anthraquinone,1,5-diamino]", "hTLR9 (inhibitory effect, antagonist score)": "13 (compounds for which there was clear down regulation at 0.5 μg/ml, 5 μg/ml, and 50 μg/ml)"},
      {"compound": "O=c1[nH]c2ccccc2n1C1CCN(CCCC(c2ccc(F)cc2)c2ccc(F)cc2)CC1", "note": "[compound 308, Pimozide]", "hTLR9 (inhibitory effect, antagonist score)": "12 (compounds for which there was clear down regulation at 5 μg/ml and 50 μg/ml)"},
      {"compound": "CN1CCC2C(C1)c1ccccc1N2Cc1ccccc1", "note": "(centres unmarked) [compound 455, Mebhydroline 1,5 naphtalenedisulfonate]", "hTLR9 (inhibitory effect, antagonist score)": "12 (compounds for which there was clear down regulation at 5 μg/ml and 50 μg/ml)"},
      {"compound": "COC(=O)c1cccc2c1-c1ccccc1/C2=N/O", "note": "[compound 904]", "hTLR9 (inhibitory effect, antagonist score)": "13 (compounds for which there was clear down regulation at 0.5 μg/ml, 5 μg/ml, and 50 μg/ml)"},
      {"compound": "CN(C)CC/C=C1/c2ccccc2CSc2ccccc21.Cl", "note": "[compound 488, Dosulepin hydrochloride]", "hTLR9 (inhibitory effect, antagonist score)": "12 (compounds for which there was clear down regulation at 5 μg/ml and 50 μg/ml)"},
      {"compound": "CC[C@]12CCCN3CCc4c(n(c5ccccc45)[C@](O)(C(=O)OC)C1)[C@@H]32", "note": "[compound 636, Epivincamine]", "hTLR9 (inhibitory effect, antagonist score)": "— (compounds for which there was no clear down regulation even at 50 μg/ml)"},
      {"compound": "Cc1cc(OC(=O)C2C3CCCCC32)c(C(C)C)cc1C1(c2cc(C(C)C)c(OC(=O)C3C4CCCCC43)cc2C)OC(=O)c2ccccc21", "note": "(centres unmarked) [compound 974]", "hTLR9 (inhibitory effect, antagonist score)": "— (compounds for which there was no clear down regulation even at 50 μg/ml)"},
      {"compound": "O=C(O)c1cc(C(c2ccc(O)c(C(=O)O)c2)C(Cl)(Cl)Cl)ccc1O", "note": "[compound 884]", "hTLR9 (inhibitory effect, antagonist score)": "— (compounds for which there was no clear down regulation even at 50 μg/ml)"},
      {"compound": "CC1CCN(C(=O)c2cccc3c2-c2ccccc2C3=O)CC1", "note": "[compound 1243]", "hTLR9 (inhibitory effect, antagonist score)": "— (compounds for which there was no clear down regulation even at 50 μg/ml)"},
      {"compound": "CN(C)CCC=C1c2ccccc2CCc2ccccc21.Cl", "note": "[compound 74, Amitryptilinehydrochloride]", "hTLR9 (inhibitory effect, antagonist score)": "12 (compounds for which there was clear down regulation at 5 μg/ml and 50 μg/ml)"},
      {"compound": "CC(CN(C)C)CN1c2ccccc2Sc2ccccc21.CC(CN(C)C)CN1c2ccccc2Sc2ccccc21.O=C(O)C(O)C(O)C(=O)O", "note": "(centres unmarked) [compound 842, Trimeprazine tartrate]", "hTLR9 (inhibitory effect, antagonist score)": "— (compounds for which there was no clear down regulation even at 50 μg/ml)"},
      {"compound": "O=C1c2c(O)cccc2Cc2cccc(O)c21", "note": "[compound 43, Anthralin]", "hTLR9 (inhibitory effect, antagonist score)": "13 (compounds for which there was clear down regulation at 0.5 μg/ml, 5 μg/ml, and 50 μg/ml)"},
      {"compound": "CN1CCN(C(c2ccccc2)c2ccccc2)CC1.Cl", "note": "[compound 510, Cyclizine hydrochloride]", "hTLR9 (inhibitory effect, antagonist score)": "11 (compounds for which there was clear down regulation only at 50 μg/ml)"},
      {"compound": "CN(C)CCCN1c2ccccc2Sc2ccccc21.Cl", "note": "[compound 693, Promazinehydrochloride]", "hTLR9 (inhibitory effect, antagonist score)": "12 (compounds for which there was clear down regulation at 5 μg/ml and 50 μg/ml)"},
      {"compound": "CCCC(C(=O)OCCN(CC)CC)(c1ccccc1)c1ccccc1.Cl", "note": "[compound 778, Proadifen hydrochloride]", "hTLR9 (inhibitory effect, antagonist score)": "11 (compounds for which there was clear down regulation only at 50 μg/ml)"},
      {"compound": "CS(=O)(=O)O.OC(CCN1CCCCC1)(c1ccccc1)c1ccccc1", "note": "[compound 799, Pridinolmethanesulfonate salt]", "hTLR9 (inhibitory effect, antagonist score)": "11 (compounds for which there was clear down regulation only at 50 μg/ml)"},
      {"compound": "Cc1cccc(C2(c3cccc(C)c3)OC(=O)c3ccccc32)c1", "note": "[compound 1308]", "hTLR9 (inhibitory effect, antagonist score)": "11 (compounds for which there was clear down regulation only at 50 μg/ml)"},
      {"compound": "OCc1cc2c(cn1)[nH]c1ccccc12", "note": "[compound 878, 3-hydroxymethyl-beta-carboline]", "hTLR9 (inhibitory effect, antagonist score)": "12 (compounds for which there was clear down regulation at 5 μg/ml and 50 μg/ml)"},
      {"compound": "CN1CCC(OC(c2ccccc2)c2ccccc2)CC1.Cl", "note": "[compound 707, Diphenylpyralinehydrochloride]", "hTLR9 (inhibitory effect, antagonist score)": "12 (compounds for which there was clear down regulation at 5 μg/ml and 50 μg/ml)"},
      {"compound": "CN1Cc2c(N)cccc2C(c2ccccc2)C1.O=C(O)/C=C\\C(=O)O", "note": "(centres unmarked) [compound 108, Nomifensine maleate]", "hTLR9 (inhibitory effect, antagonist score)": "11 (compounds for which there was clear down regulation only at 50 μg/ml)"},
      {"compound": "NC(=O)c1cc(N)c2c(c1N)C(=O)c1ccccc1C2=O", "note": "[compound 1158]", "hTLR9 (inhibitory effect, antagonist score)": "11 (compounds for which there was clear down regulation only at 50 μg/ml)"},
      {"compound": "Cl.Clc1ccc(C(OCCN2CCCCC2)c2ccccc2)cc1", "note": "(centres unmarked) [compound 793, Cloperastinehydrochloride]", "hTLR9 (inhibitory effect, antagonist score)": "12 (compounds for which there was clear down regulation at 5 μg/ml and 50 μg/ml)"},
      {"compound": "CC(NCCC(c1ccccc1)c1ccccc1)c1ccccc1.Cl", "note": "(centres unmarked) [compound 270, Fendiline hydrochloride]", "hTLR9 (inhibitory effect, antagonist score)": "— (compounds for which there was no clear down regulation even at 50 μg/ml)"},
      {"compound": "CN(C)CCCN1c2ccccc2Sc2ccc(Cl)cc21.Cl", "note": "[compound 64, Chlorpromazinehydrochloride]", "hTLR9 (inhibitory effect, antagonist score)": "12 (compounds for which there was clear down regulation at 5 μg/ml and 50 μg/ml)"}
    ]}
  ]
}
